Data as given in ChEMBL document CHEMBL4814021, “Synthesis, biological evaluation, and correlation of cytotoxicity versus redox potential of 1,4-naphthoquinone derivatives” (Bioorg Med Chem Lett, 2021).

Molecular target: T1, DNA topoisomerase 1 (Homo sapiens, UniProt P11387)
T1 sequence (P11387 whole entry): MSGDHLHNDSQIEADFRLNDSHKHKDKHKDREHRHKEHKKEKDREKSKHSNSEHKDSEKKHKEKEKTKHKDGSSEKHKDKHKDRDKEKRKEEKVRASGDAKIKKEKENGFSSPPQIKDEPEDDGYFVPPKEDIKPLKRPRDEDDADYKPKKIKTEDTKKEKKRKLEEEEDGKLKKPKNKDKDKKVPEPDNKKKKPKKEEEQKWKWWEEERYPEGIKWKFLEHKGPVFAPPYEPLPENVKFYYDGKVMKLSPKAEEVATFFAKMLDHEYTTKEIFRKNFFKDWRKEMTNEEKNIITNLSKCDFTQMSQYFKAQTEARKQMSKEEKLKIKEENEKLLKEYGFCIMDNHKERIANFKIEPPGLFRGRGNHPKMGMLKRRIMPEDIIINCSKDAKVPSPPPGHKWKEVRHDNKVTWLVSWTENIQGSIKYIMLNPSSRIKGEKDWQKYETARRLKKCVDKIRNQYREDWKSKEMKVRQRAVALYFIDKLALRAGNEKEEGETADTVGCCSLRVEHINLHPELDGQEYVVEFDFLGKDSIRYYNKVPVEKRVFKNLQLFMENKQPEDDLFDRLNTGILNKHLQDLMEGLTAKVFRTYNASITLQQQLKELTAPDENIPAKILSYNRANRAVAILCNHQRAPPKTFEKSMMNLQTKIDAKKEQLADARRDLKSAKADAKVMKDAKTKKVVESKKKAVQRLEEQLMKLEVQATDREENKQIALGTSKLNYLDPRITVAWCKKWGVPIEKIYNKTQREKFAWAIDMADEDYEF
Assay: Inhibition of DNA topoisomerase 1 (unknown origin)

SMILES | IC50 [µM]
COc1cccc2c1C(=O)C=CC2=O | 48
O=C1C=CC(=O)c2cc(OCc3ccccc3)ccc21 | 53.7
O=C(Oc1ccc2c(c1)C(=O)C=CC2=O)c1cccs1 | > 100
Cc1ccc(S(=O)(=O)Oc2ccc3c(c2)C(=O)C=CC3=O)cc1 | > 100
CS(=O)(=O)Oc1cccc2c1C(=O)C=CC2=O | > 100
O=C(Oc1cccc2c1C(=O)C=CC2=O)c1cccs1 | > 100
CC(=O)Oc1ccc2c(c1)C(=O)C=CC2=O | > 100
O=C(Oc1ccc2c(c1)C(=O)C=CC2=O)c1ccco1 | > 100
O=C(Oc1cccc2c1C(=O)C=CC2=O)c1ccccc1 | 90.6
O=C1C=CC(=O)c2c(O)cccc21 [JUGLONE] | 8.26

Tested on: KB
Assay: Cytotoxicity against human KB cells
Assay type: functional, cell-based

SMILES | IC50 [µM]
COc1cccc2c1C(=O)C=CC2=O | 23.8
CCOC1=CC(=O)c2ccccc2C1=O | 16.9
CC(=O)Oc1cccc2c1C(=O)C=CC2=O | 1.39
O=C1C=CC(=O)c2c(OCc3ccccc3)cccc21 | 8.48
O=C1C=CC(=O)c2cc(O)ccc21 | 13.3
CS(=O)(=O)OC1=CC(=O)c2ccccc2C1=O | 7.18
O=C1C=CC(=O)c2cc(OCc3ccccc3)ccc21 | 26.2
COc1ccc2c(c1)C(=O)C=CC2=O | 33.9
C/C=C/C(=O)OC1=CC(=O)c2ccccc2C1=O | 64.2
O=C(OC1=CC(=O)c2ccccc2C1=O)c1ccccc1 | 36.9
O=C(Oc1ccc2c(c1)C(=O)C=CC2=O)c1cccs1 | 18.3
O=C1C=C(Oc2ccco2)C(=O)c2ccccc21 | 53.4
O=C(Oc1cccc2c1C(=O)C=CC2=O)c1ccco1 | 13.4
Cc1ccc(S(=O)(=O)Oc2ccc3c(c2)C(=O)C=CC3=O)cc1 | 16.4
Cc1ccc(S(=O)(=O)Oc2cccc3c2C(=O)C=CC3=O)cc1 | 10.7
CS(=O)(=O)Oc1cccc2c1C(=O)C=CC2=O | 27.1
O=C(Oc1cccc2c1C(=O)C=CC2=O)c1cccs1 | 6.23

SMILES | IC50 [µM]
CCCOC1=CC(=O)c2ccccc2C1=O | 49.4
CCOc1ccc2c(c1)C(=O)C=CC2=O | 21.4
O=C(OC1=CC(=O)c2ccccc2C1=O)c1cccs1 | 41.5
CCCCOC1=CC(=O)c2ccccc2C1=O | 27
Cc1ccc(S(=O)(=O)OC2=CC(=O)c3ccccc3C2=O)cc1 | 18.8
CC(=O)Oc1ccc2c(c1)C(=O)C=CC2=O | 22.1
CC(=O)OC1=CC(=O)c2ccccc2C1=O | 38.8
O=C(Oc1ccc2c(c1)C(=O)C=CC2=O)c1ccccc1 | 12.1
O=C(Oc1ccc2c(c1)C(=O)C=CC2=O)c1ccco1 | 15.8
C=CCOc1ccc2c(c1)C(=O)C=CC2=O | 10.2
O=C(Oc1cccc2c1C(=O)C=CC2=O)c1ccccc1 | 6.47
CS(=O)(=O)Oc1ccc2c(c1)C(=O)C=CC2=O | 11.6
COC1=CC(=O)c2ccccc2C1=O [2-Methoxy-1,4-naphthoquinone] | 17.3
O=C1C=CC(=O)c2c(O)cccc21 [JUGLONE] | 6.55
O=C1C=C(O)C(=O)c2ccccc21 [LAWSONE] | 105
CC1=CC(=O)c2c(O)cccc2C1=O [PLUMBAGIN] | 9.83

Tested on: not listed separately
Assay: Redox potential of compound in phosphate buffer at pH 7.2 by cyclic voltammetry
Assay type: physicochemical

SMILES | Activity [V]
COc1cccc2c1C(=O)C=CC2=O | -0.165
CCOC1=CC(=O)c2ccccc2C1=O | -0.304
CC(=O)Oc1cccc2c1C(=O)C=CC2=O | -0.208
O=C1C=CC(=O)c2c(OCc3ccccc3)cccc21 | -0.16
O=C1C=CC(=O)c2cc(O)ccc21 | -0.192
CS(=O)(=O)OC1=CC(=O)c2ccccc2C1=O | -0.146
O=C1C=CC(=O)c2cc(OCc3ccccc3)ccc21 | -0.207
COc1ccc2c(c1)C(=O)C=CC2=O | -0.196
C/C=C/C(=O)OC1=CC(=O)c2ccccc2C1=O | -0.413
O=C(OC1=CC(=O)c2ccccc2C1=O)c1ccccc1 | -0.368
O=C(Oc1ccc2c(c1)C(=O)C=CC2=O)c1cccs1 | -0.166
O=C1C=C(Oc2ccco2)C(=O)c2ccccc21 | -0.395
O=C(Oc1cccc2c1C(=O)C=CC2=O)c1ccco1 | -0.213
Cc1ccc(S(=O)(=O)Oc2ccc3c(c2)C(=O)C=CC3=O)cc1 | -0.154
Cc1ccc(S(=O)(=O)Oc2cccc3c2C(=O)C=CC3=O)cc1 | -0.151
CS(=O)(=O)Oc1cccc2c1C(=O)C=CC2=O | -0.158
O=C(Oc1cccc2c1C(=O)C=CC2=O)c1cccs1 | -0.212

SMILES | Activity [V]
CCCOC1=CC(=O)c2ccccc2C1=O | -0.32
CCOc1ccc2c(c1)C(=O)C=CC2=O | -0.197
O=C(OC1=CC(=O)c2ccccc2C1=O)c1cccs1 | -0.413
CCCCOC1=CC(=O)c2ccccc2C1=O | -0.305
Cc1ccc(S(=O)(=O)OC2=CC(=O)c3ccccc3C2=O)cc1 | -0.165
CC(=O)Oc1ccc2c(c1)C(=O)C=CC2=O | -0.18
CC(=O)OC1=CC(=O)c2ccccc2C1=O | -0.416
O=C(Oc1ccc2c(c1)C(=O)C=CC2=O)c1ccccc1 | -0.174
O=C(Oc1ccc2c(c1)C(=O)C=CC2=O)c1ccco1 | -0.16
C=CCOc1ccc2c(c1)C(=O)C=CC2=O | -0.194
O=C(Oc1cccc2c1C(=O)C=CC2=O)c1ccccc1 | -0.208
CS(=O)(=O)Oc1ccc2c(c1)C(=O)C=CC2=O | -0.15
COC1=CC(=O)c2ccccc2C1=O [2-Methoxy-1,4-naphthoquinone] | -0.305
O=C1C=CC(=O)c2c(O)cccc21 [JUGLONE] | -0.204
O=C1C=C(O)C(=O)c2ccccc21 [LAWSONE] | -0.431
CC1=CC(=O)c2c(O)cccc2C1=O [PLUMBAGIN] | -0.346

Tested on: HeLa
Assay: Cytotoxicity against human HeLa cells
Assay type: functional, cell-based

SMILES | IC50 [µM]
COc1cccc2c1C(=O)C=CC2=O | 21.7
CCOC1=CC(=O)c2ccccc2C1=O | 23.8
CC(=O)Oc1cccc2c1C(=O)C=CC2=O | 6.48
O=C1C=CC(=O)c2c(OCc3ccccc3)cccc21 | 13.8
O=C1C=CC(=O)c2cc(O)ccc21 | 7.06
CS(=O)(=O)OC1=CC(=O)c2ccccc2C1=O | 7.61
O=C1C=CC(=O)c2cc(OCc3ccccc3)ccc21 | 16.8
COc1ccc2c(c1)C(=O)C=CC2=O | 22.7
C/C=C/C(=O)OC1=CC(=O)c2ccccc2C1=O | 37.9
O=C(OC1=CC(=O)c2ccccc2C1=O)c1ccccc1 | 55
O=C(Oc1ccc2c(c1)C(=O)C=CC2=O)c1cccs1 | 8.86
O=C1C=C(Oc2ccco2)C(=O)c2ccccc21 | 37
O=C(Oc1cccc2c1C(=O)C=CC2=O)c1ccco1 | 12.5
Cc1ccc(S(=O)(=O)Oc2ccc3c(c2)C(=O)C=CC3=O)cc1 | 15.1
Cc1ccc(S(=O)(=O)Oc2cccc3c2C(=O)C=CC3=O)cc1 | 9.47
CS(=O)(=O)Oc1cccc2c1C(=O)C=CC2=O | 23.6
O=C(Oc1cccc2c1C(=O)C=CC2=O)c1cccs1 | 5.21

SMILES | IC50 [µM]
CCCOC1=CC(=O)c2ccccc2C1=O | 51.6
CCOc1ccc2c(c1)C(=O)C=CC2=O | 25.1
O=C(OC1=CC(=O)c2ccccc2C1=O)c1cccs1 | 35.3
CCCCOC1=CC(=O)c2ccccc2C1=O | 35.3
Cc1ccc(S(=O)(=O)OC2=CC(=O)c3ccccc3C2=O)cc1 | 12.2
CC(=O)Oc1ccc2c(c1)C(=O)C=CC2=O | 27.7
CC(=O)OC1=CC(=O)c2ccccc2C1=O | 62.1
O=C(Oc1ccc2c(c1)C(=O)C=CC2=O)c1ccccc1 | 19.2
O=C(Oc1ccc2c(c1)C(=O)C=CC2=O)c1ccco1 | 17.2
C=CCOc1ccc2c(c1)C(=O)C=CC2=O | 27.2
O=C(Oc1cccc2c1C(=O)C=CC2=O)c1ccccc1 | 13
CS(=O)(=O)Oc1ccc2c(c1)C(=O)C=CC2=O | 17.7
COC1=CC(=O)c2ccccc2C1=O [2-Methoxy-1,4-naphthoquinone] | 29.8
O=C1C=CC(=O)c2c(O)cccc21 [JUGLONE] | 15.7
O=C1C=C(O)C(=O)c2ccccc21 [LAWSONE] | 71.3
CC1=CC(=O)c2c(O)cccc2C1=O [PLUMBAGIN] | 10.2
